Data set [1] relates to Lectin Pathway Activation (LPA) in human serum. Nature of the data set: Lectin pathway activation (LPA) assay in human serum, C4 deposition on mannan-coated plate. Format: biochemical. Conditions: 1% pooled human serum, 55 minutes, room temperature. As to the method:
A Microtiter ELISA plate (Nunc-Maxi Sorp; Sigma-Aldrich®, USA) was coated with mannan sourced from Saccharomyces cerevisiae (Sigma-Aldrich®, USA) in a coating buffer comprising 33.3 mM Na2CO3 and 166.67 mM NaHCO3. The plates were incubated at room temperature overnight. Subsequently, the plates were blocked with a 5% bovine serum albumin solution (Sigma-Aldrich®, USA) prepared in PBST for 2 hours at room temperature with agitation. Varying concentrations of MASP-2 inhibitors were dispensed onto the empty plate.
To perform the assay, pooled human serum was diluted to 1% in a solution of 20 mM HEPES (pH=7.4), 140 mM NaCl, and 1 mM MgCl2. Then, 40 μl of the diluted human serum was dispensed into each well of the Microtiter ELISA plate and incubated for 55 minutes at room temperature. The C4 deposition on the mannan-coated surface was stopped using an EDTA stop solution (20 mM HEPES, pH=7.4, 140 mM NaCl, and 150 mM EDTA). Subsequently, rabbit anti-Human C4c antibody (Agilent Technologies, USA) prepared in PBST was added, and the plates were incubated at room temperature for 30 minutes with agitation, then washed with PBST, and Goat anti-rabbit IgG(H+L) HRP-conjugated (Southern Biotech®, USA) was added. The plates were again incubated at room temperature for 30 minutes with agitation, and then were washed with PBST. Following this, the Amplex® UltraRed® (Thermo Fischer Sci, USA) substrate solution was added for 16 minutes, followed by the addition of the Amplex® UltraRed® stop solution. The plates' fluorescence was measured using an i3× microplate reader (Molecular Devices, USA) with excitation at 550 nm and emission at 580 nm. The raw data generated from the plate reader was exported to GraphPad Prism® (version 10.0.3), and the non-linear regression curve was generated using the 4-parameter logistic fit equation. All data are reported as pIC50 with a 95% confidence interval.

The next data set has as its target T1, MASP-2 (CCP1-CCP2-SP) (Homo sapiens, UniProt O00187).
T1 construct: 15 μL of Enzyme MASP-2 (CCP1-CCP2-SP) in Assay Buffer
The experiment in a line: Enzymatic assay for MASP-2 inhibitory activity (fluorogenic substrate). Format: biochemical. Conditions: room temperature, 20 mM Hepes pH 7.4, 20 min. The procedure, abridged: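 Human MASP-2 CCP1-CCP2-SP construct with a C2-cleavage-site fluorogenic substrate in 20 mM HEPES pH 7.4, 140 mM NaCl, 0.1% Tween 20, 20 min at room temperature before acetic acid stop. Activity normalised to DMSO and no-enzyme controls; IC50 taken as equivalent to Ki under linear conditions.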

For another data set, the target named is T2, human a-thrombin (Homo sapiens, UniProt P00734).
T2 construct: enzyme (human a-thrombin (BioPharm® Lab.)); purchased BioPharm Lab
Nature of the data set: Enzymatic assay for thrombin (fluorogenic peptide substrate Boc-VPR-AMC). It is filed as biochemical. Conditions: room temperature, 20 mM Hepes pH 7.4, 20 min. The procedure, abridged: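 Human α-thrombin was incubated with serially diluted compound and fluorogenic substrate Boc-VPR-AMC in 20 mM Hepes pH 7.4, 140 mM NaCl, 0.1% Tween 20 at room temperature. The reaction was stopped after 20 min with 0.1 M acetic acid and fluorescence read. % activity was normalized to DMSO and no-enzyme controls, and IC50 was taken as equivalent to Ki.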

Another data set relates to severe IgA nephropathy. Conditions: cited from earlier work.
The next data set has as its system HSCT-TMA. Conditions: once-weekly treatment, HSCT-TMA patients; cited from earlier work.
For data set [2], the system named is microvascular endothelial cell injury. Conditions: tissue culture model; cited from earlier work.

In general, IC50 refers to the midpoint of a concentration-inhibition curve. The term Ki denotes a measure of affinity in units of concentration, obtained from inhibition or displacement. Read a low Ki as higher affinity.

T1 sequence (O00187 287-686 limits assumed): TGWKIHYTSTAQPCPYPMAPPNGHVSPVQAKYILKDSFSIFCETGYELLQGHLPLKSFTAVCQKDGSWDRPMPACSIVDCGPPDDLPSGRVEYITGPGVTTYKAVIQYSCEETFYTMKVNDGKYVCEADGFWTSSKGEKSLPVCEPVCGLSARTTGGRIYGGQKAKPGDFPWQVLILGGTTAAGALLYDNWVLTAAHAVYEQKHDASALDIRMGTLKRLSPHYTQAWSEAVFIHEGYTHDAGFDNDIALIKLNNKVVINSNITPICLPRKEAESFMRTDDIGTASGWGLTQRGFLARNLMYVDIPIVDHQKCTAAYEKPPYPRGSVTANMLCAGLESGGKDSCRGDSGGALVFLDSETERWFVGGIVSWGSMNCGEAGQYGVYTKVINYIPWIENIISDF

In data set [1], `Cc1ccc(C)c(CNc2cnc3n(c2=O)[C@H](C(=O)N[C@@H]2CCc4nc(N)ccc42)CC3)c1` [Compound 94] registered an IC50 of less than 500 nM. For the same compound, the Ki at MASP-2 (CCP1-CCP2-SP) was less than 500 nM; on human a-thrombin it was 500 to 2500 nM.

`Cc1ccc(F)c(CNc2cnc3n(c2=O)[C@H](C(=O)N[C@@H]2CCc4nc(N)ccc42)CC3)c1` [Compound 95]: the IC50 in data set [1] is less than 500 nM. Besides, the Ki at MASP-2 (CCP1-CCP2-SP) was less than 500 nM; on human a-thrombin it was 500 to 2500 nM.

Take `CS(=O)(=O)c1cccc(CNc2cnc3n(c2=O)[C@H](C(=O)N[C@@H]2CCc4nc(N)ccc42)CC3)c1` [Compound 97]: the IC50 in data set [1] was less than 500 nM. Further, the Ki on MASP-2 (CCP1-CCP2-SP) is less than 500 nM; on human a-thrombin it was 500 to 2500 nM.

As for `Nc1ccc2c(n1)CC[C@H]2NC(=O)[C@@H]1CCc2ncc(NCc3ccc4c(c3)COC4)c(=O)n21` [Compound 100], the IC50 in data set [1] is less than 500 nM. For the same compound, the Ki on MASP-2 (CCP1-CCP2-SP) is less than 500 nM; at human a-thrombin it was 2500 to 10000 nM.

Compound `Nc1ccc2c(n1)CC[C@H]2NC(=O)[C@@H]1CCc2ncc(NCc3cccc(C(F)(F)F)c3)c(=O)n21` [Compound 105] came in with an IC50 in data set [1] of less than 500 nM. Besides, the Ki on MASP-2 (CCP1-CCP2-SP) was less than 500 nM; at human a-thrombin, 2500 to 10000 nM.

Take `Cc1cc(C)cc(CNc2cnc3n(c2=O)[C@H](C(=O)N[C@H](C)c2cc4c(s2)CNC4)CC3)c1` [Compound 106]: the IC50 in data set [1] was less than 500 nM. Also, the Ki at MASP-2 (CCP1-CCP2-SP) is less than 500 nM; on human a-thrombin, more than 25000 nM.

With narsoplimab, the tolerability result in the data set on severe IgA nephropathy (human, in vivo) is given as “well tolerated”. In the data set with severe IgA nephropathy (once-weekly treatment, after 3 years of follow-up), the “urine protein excretion decrease from baseline” value is given as 38%. For the same compound, in the data set with severe IgA nephropathy (once-weekly treatment, after 3 years of follow-up, matched external comparator group 8.6), the “annualized rate of kidney function decline” value is 5.2 mL/min/yr. Also, the “response rate based on improvement in laboratory TMA markers and clinical benefit” value in the data set on HSCT-TMA is 61%. The “effect on HSCT-TMA plasma-mediated endothelial damage” value in data set [2] is on record as “reduce HSCT-TMA plasma-mediated endothelial damage”.

The record behind these values is US20240228499A1, “MASP-2 INHIBITORS AND METHODS OF USE” (Omeros Corporation, priority 2022, published 2024).
